From paper PMC5513037, “Examining the influence of specificity ligands and ATP-competitive ligands on the overall effectiveness of bivalent kinase inhibitors” (Proteome Science, 2017)

Experiments:
Test in all cases: KAM-matrix competition in K562 lysate;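 as to 0.001 uM KAM: median log10 fold change of treatment over DMSO control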;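 as to 0.01 uM KAM: median log10 fold change of treatment over DMSO control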;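 as to 0.1 uM KAM: median log10 fold change of treatment over DMSO control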;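 as to 1 uM KAM: median log10 fold change of treatment over DMSO control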;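 as to 10 uM KAM: median log10 fold change of treatment over DMSO control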
Assay type in all cases: binding
MAPKAPK2 = target: T1, MAPKAPK2 (Homo sapiens, UniProt P49137);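 as to 0.001 uM KAM: median log10 fold change of treatment over DMSO control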;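 as to 0.01 uM KAM: median log10 fold change of treatment over DMSO control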;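 as to 0.1 uM KAM: median log10 fold change of treatment over DMSO control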;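 as to 1 uM KAM: median log10 fold change of treatment over DMSO control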;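 as to 10 uM KAM: median log10 fold change of treatment over DMSO control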
T1 construct: endogenous in cells; host or cells: K562
T1 sequence (P49137 whole entry): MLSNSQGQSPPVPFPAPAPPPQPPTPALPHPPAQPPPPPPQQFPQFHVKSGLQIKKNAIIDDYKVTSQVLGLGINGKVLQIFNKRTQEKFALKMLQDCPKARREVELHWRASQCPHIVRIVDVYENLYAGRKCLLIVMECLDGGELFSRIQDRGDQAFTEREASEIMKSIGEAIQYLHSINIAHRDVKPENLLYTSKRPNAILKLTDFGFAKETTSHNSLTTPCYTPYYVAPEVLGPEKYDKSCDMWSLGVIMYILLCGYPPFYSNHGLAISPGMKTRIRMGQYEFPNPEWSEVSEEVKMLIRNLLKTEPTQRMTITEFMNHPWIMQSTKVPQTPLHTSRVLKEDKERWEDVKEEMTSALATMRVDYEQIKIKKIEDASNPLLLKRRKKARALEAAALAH
Description: (§1) Supplement 12953_2017_125_MOESM1_ESM.zip/MS_Supp Info.xlsx, sheet "KAM" | column: 10 uM KAM; 1 uM KAM; 0.1 uM KAM; 0.01 uM KAM; 0.001 uM KAM; RB50

ULK3 = target: T2, ULK3 (Homo sapiens, UniProt Q6PHR2)
T2 construct: endogenous in cells; host or cells: K562 cell lysate
T2 sequence (Q6PHR2 1-472): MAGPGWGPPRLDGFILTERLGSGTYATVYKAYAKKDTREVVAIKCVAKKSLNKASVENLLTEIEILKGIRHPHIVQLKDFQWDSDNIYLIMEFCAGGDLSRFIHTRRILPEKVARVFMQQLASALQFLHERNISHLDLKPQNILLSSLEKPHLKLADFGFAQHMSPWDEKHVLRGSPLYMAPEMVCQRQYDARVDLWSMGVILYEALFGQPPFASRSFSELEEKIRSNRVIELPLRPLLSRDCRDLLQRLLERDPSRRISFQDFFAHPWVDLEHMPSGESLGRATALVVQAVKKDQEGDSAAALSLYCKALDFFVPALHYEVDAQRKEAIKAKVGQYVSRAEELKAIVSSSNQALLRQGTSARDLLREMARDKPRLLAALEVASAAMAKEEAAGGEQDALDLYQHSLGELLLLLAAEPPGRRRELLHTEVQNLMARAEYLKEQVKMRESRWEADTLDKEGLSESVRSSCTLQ
Description: as §1

AURKC = target: T3, AURKC (Homo sapiens, UniProt Q9UQB9)
T3 construct: endogenous in cells; host or cells: K562
T3 sequence (Q9UQB9 1-309): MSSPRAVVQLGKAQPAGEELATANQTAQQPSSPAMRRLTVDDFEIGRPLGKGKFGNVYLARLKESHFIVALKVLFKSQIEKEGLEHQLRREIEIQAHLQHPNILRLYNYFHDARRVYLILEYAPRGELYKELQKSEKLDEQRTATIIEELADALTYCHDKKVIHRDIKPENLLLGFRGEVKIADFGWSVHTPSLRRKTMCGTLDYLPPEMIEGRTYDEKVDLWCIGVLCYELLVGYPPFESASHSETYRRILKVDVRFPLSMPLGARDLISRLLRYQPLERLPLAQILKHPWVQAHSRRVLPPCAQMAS
Description: as §1

MERTK = target: T4, MERTK (Homo sapiens, UniProt Q12866);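 as to 0.001 uM KAM: median log10 fold change of treatment over DMSO control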;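 as to 0.01 uM KAM: median log10 fold change of treatment over DMSO control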;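 as to 0.1 uM KAM: median log10 fold change of treatment over DMSO control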;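 as to 1 uM KAM: median log10 fold change of treatment over DMSO control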;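 as to 10 uM KAM: median log10 fold change of treatment over DMSO control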
T4 construct: endogenous in cells; host or cells: K562
T4 sequence (Q12866 21-999): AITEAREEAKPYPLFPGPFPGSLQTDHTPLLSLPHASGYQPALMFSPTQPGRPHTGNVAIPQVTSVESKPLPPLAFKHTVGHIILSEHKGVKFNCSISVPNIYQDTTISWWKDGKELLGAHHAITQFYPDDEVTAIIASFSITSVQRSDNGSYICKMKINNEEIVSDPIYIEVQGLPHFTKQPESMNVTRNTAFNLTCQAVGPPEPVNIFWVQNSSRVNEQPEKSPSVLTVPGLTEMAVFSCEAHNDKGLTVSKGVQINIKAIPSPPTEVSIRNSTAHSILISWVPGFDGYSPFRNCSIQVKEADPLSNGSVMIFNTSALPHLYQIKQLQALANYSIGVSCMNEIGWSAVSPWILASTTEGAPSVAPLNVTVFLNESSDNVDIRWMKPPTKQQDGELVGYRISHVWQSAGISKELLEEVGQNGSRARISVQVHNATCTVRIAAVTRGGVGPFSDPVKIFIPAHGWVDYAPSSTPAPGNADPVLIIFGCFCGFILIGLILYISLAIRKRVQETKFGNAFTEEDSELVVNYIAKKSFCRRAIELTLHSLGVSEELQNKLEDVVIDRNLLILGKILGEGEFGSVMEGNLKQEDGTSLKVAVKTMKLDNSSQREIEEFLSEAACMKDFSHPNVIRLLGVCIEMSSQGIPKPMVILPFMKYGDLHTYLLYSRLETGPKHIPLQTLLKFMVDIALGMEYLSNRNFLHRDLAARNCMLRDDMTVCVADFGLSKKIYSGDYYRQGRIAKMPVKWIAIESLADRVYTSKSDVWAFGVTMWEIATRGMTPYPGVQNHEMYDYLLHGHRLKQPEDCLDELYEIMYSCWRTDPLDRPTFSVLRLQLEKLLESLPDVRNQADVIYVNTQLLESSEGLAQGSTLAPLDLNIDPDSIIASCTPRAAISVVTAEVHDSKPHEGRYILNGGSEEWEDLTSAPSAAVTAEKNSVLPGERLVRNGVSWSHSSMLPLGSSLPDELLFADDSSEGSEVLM
Description: as §1

CSNK1A1 = target: T5, CSNK1A1 (Homo sapiens, UniProt P48729);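 as to 0.001 uM KAM: median log10 fold change of treatment over DMSO control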;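 as to 0.01 uM KAM: median log10 fold change of treatment over DMSO control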;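 as to 0.1 uM KAM: median log10 fold change of treatment over DMSO control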;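 as to 1 uM KAM: median log10 fold change of treatment over DMSO control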;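 as to 10 uM KAM: median log10 fold change of treatment over DMSO control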
T5 construct: endogenous in cells; host or cells: K562
T5 sequence (P48729 whole entry): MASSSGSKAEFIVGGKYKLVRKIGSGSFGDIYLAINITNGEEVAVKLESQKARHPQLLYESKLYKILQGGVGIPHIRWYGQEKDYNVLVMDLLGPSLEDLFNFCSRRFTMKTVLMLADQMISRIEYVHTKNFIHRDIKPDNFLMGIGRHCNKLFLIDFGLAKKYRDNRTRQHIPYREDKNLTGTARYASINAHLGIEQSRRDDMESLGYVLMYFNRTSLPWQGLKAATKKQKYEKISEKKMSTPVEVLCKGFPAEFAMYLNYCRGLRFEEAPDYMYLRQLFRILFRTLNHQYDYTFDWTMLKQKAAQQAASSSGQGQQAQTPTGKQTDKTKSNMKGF
Description: as §1

CDK7 = target: T6, CDK7 (Homo sapiens, UniProt P50613)
T6 construct: endogenous in cells; host or cells: K562
T6 sequence (P50613 2-346 limits assumed): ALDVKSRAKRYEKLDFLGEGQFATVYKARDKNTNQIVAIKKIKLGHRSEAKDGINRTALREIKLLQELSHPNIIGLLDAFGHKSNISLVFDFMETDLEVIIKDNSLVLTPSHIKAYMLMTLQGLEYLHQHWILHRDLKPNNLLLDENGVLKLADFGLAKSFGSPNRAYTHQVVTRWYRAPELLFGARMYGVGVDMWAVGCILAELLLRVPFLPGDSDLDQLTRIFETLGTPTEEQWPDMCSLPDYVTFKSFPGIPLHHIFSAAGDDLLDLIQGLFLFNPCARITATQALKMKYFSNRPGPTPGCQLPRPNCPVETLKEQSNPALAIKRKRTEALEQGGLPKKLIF
T6 sequence (P51946 whole entry partner): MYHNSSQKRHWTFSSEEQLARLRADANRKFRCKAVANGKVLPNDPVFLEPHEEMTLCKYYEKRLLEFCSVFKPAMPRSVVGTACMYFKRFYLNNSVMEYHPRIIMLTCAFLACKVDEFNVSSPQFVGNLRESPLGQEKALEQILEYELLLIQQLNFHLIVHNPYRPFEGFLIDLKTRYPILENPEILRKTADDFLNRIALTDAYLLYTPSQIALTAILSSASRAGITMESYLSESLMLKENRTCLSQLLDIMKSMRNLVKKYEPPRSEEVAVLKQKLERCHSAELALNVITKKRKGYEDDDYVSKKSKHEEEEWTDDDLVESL
T6 sequence (P51948 whole entry partner): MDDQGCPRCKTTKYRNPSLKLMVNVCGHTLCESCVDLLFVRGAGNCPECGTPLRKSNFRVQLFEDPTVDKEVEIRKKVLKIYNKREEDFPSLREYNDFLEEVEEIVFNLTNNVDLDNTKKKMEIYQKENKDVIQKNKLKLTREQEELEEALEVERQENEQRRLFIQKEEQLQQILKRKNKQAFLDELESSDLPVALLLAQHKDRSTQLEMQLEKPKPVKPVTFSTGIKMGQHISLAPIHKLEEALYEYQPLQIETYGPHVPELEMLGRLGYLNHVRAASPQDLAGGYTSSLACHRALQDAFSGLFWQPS
Description: as §1

RIOK2 = target: T7, RIOK2 (Homo sapiens, UniProt Q9BVS4)
T7 construct: endogenous in cells; host or cells: K562
T7 sequence (Q9BVS4 whole entry): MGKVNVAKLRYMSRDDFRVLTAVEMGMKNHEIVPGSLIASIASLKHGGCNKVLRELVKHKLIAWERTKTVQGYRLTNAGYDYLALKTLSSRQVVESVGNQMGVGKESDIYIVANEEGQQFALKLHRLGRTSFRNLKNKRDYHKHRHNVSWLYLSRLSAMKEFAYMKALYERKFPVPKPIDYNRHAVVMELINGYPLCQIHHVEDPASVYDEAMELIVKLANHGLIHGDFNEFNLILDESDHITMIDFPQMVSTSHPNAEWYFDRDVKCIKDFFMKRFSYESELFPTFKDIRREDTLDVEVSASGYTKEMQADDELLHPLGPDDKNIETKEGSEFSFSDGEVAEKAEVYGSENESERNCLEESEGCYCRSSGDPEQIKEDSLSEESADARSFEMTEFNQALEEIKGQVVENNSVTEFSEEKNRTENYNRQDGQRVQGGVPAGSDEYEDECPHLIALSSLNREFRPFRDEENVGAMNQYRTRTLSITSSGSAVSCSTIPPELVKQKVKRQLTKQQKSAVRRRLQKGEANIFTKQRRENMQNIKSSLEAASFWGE
Description: as §1

MAPK14 = target: T8, MAPK14 (Homo sapiens, UniProt Q16539);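 as to 0.001 uM KAM: median log10 fold change of treatment over DMSO control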;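 as to 0.01 uM KAM: median log10 fold change of treatment over DMSO control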;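 as to 0.1 uM KAM: median log10 fold change of treatment over DMSO control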;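 as to 1 uM KAM: median log10 fold change of treatment over DMSO control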;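 as to 10 uM KAM: median log10 fold change of treatment over DMSO control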
T8 construct: endogenous in cells; host or cells: K562
T8 sequence (Q16539 whole entry): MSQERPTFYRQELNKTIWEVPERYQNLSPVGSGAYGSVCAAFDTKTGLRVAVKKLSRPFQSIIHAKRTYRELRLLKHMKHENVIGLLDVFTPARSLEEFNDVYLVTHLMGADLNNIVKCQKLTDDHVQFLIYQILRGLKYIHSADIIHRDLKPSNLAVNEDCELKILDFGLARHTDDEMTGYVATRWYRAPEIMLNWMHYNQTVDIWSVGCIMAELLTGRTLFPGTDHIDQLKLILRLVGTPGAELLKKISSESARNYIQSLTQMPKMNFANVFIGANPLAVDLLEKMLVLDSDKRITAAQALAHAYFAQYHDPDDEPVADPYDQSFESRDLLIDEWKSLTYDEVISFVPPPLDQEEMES
Description: as §1

[1] = KAM 0.001-10 uM, read-out: RB50 (the source's name)
[2] = read-out: RB50 (the source's name)

Compound: N#CCc1ccc(Nc2nc(NCCCN)cc(Nc3cc(C4CC4)[nH]n3)n2)cc1 [KAM]
- IC50 (MAPKAPK2; [1]): > 10 µM
- 0.001 uM KAM (MAPKAPK2; relative to 0 uM KAM = 0): 0.05207
- 0.01 uM KAM (MAPKAPK2; relative to 0 uM KAM = 0): -0.01973
- 0.1 uM KAM (MAPKAPK2; relative to 0 uM KAM = 0): 0.02471
- 1 uM KAM (MAPKAPK2; relative to 0 uM KAM = 0): 0.08157
- 10 uM KAM (MAPKAPK2; relative to 0 uM KAM = 0): 0.02045
- median Log10 fold change (ULK3; 0.001 uM KAM): 0.008102
- median Log10 fold change (ULK3; 0.01 uM KAM): 0.009404
- median Log10 fold change (ULK3; 0.1 uM KAM): -0.1871
- median Log10 fold change (ULK3; 1 uM KAM): -0.4491
- median Log10 fold change (ULK3; 10 uM KAM): -0.5442
- IC50 (ULK3; [2]): 0.405 µM
- median Log10 fold change (AURKC; 0.001 uM KAM): 0.0006126
- median Log10 fold change (AURKC; 0.01 uM KAM): -0.1035
- median Log10 fold change (AURKC; 0.1 uM KAM): -0.4123
- median Log10 fold change (AURKC; 1 uM KAM): -0.4901
- median Log10 fold change (AURKC; 10 uM KAM): -0.3419
- IC50 (AURKC; [2]): 0.075 µM
- IC50 (MERTK; [1]): > 10 µM
- 0.001 uM KAM (MERTK; relative to 0 uM KAM = 0): -0.05728
- 0.01 uM KAM (MERTK; relative to 0 uM KAM = 0): -0.0237
- 0.1 uM KAM (MERTK; relative to 0 uM KAM = 0): -0.04893
- 1 uM KAM (MERTK; relative to 0 uM KAM = 0): -0.1208
- 10 uM KAM (MERTK; relative to 0 uM KAM = 0): -0.2454
- IC50 (CSNK1A1; [1]): > 10 µM
- 0.001 uM KAM (CSNK1A1; relative to 0 uM KAM = 0): 0.05671
- 0.01 uM KAM (CSNK1A1; relative to 0 uM KAM = 0): -0.02341
- 0.1 uM KAM (CSNK1A1; relative to 0 uM KAM = 0): 0.02518
- 1 uM KAM (CSNK1A1; relative to 0 uM KAM = 0): 0.03521
- 10 uM KAM (CSNK1A1; relative to 0 uM KAM = 0): -0.008144
- median Log10 fold change (CDK7; 0.001 uM KAM): -0.0273
- median Log10 fold change (CDK7; 0.01 uM KAM): -0.01722
- median Log10 fold change (CDK7; 0.1 uM KAM): -0.1187
- median Log10 fold change (CDK7; 1 uM KAM): -0.275
- median Log10 fold change (CDK7; 10 uM KAM): -0.3928
- IC50 (CDK7; [2]): 1.66 µM
- median Log10 fold change (RIOK2; 0.001 uM KAM): -0.01457
- median Log10 fold change (RIOK2; 0.01 uM KAM): -0.03291
- median Log10 fold change (RIOK2; 0.1 uM KAM): -0.138
- median Log10 fold change (RIOK2; 1 uM KAM): -0.3574
- median Log10 fold change (RIOK2; 10 uM KAM): -0.5027
- IC50 (RIOK2; [2]): 0.774 µM
- IC50 (MAPK14; [1]): > 10 µM
- 0.001 uM KAM (MAPK14; relative to 0 uM KAM = 0): -0.03046
- 0.01 uM KAM (MAPK14; relative to 0 uM KAM = 0): 0.03223
- 0.1 uM KAM (MAPK14; relative to 0 uM KAM = 0): 0.1026
- 1 uM KAM (MAPK14; relative to 0 uM KAM = 0): 0.08115
- 10 uM KAM (MAPK14; relative to 0 uM KAM = 0): 0.173
